{"source": "patent US7892789B2", "about": "“Method of increasing cell permeability to trehalose by recombinantly producing a trehalose transporter” (priority 2007, dated 2011)", "key": {"TRET1": {"target": "T1, TRET1 (Polypedilum vanderplanki, UniProt A5LGM7)", "T1 construct": "ORF of either Tret1, DmTret1, AmTret1, AgTret1 or BmTret1 cDNA was amplified with PCR; expressed in transfected cells; host or cells: Xenopus laevis oocytes injected with cRNA", "T1 sequence (A5LGM7 1-504)": "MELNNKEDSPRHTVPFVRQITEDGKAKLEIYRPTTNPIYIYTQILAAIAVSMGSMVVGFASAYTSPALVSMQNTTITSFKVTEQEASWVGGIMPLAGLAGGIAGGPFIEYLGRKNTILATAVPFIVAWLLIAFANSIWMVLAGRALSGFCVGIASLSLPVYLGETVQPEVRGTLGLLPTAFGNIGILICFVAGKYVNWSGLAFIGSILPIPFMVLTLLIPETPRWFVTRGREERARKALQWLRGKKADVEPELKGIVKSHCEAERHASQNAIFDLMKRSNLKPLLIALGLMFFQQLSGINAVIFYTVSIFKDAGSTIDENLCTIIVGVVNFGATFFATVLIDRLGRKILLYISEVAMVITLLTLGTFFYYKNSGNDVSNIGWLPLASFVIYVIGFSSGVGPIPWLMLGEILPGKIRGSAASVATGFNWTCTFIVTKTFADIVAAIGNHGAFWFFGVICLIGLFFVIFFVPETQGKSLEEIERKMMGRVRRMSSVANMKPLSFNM", "format": "cell-based", "conditions": "for effect on the transport activity of TRET1: 105 mM trehalose, various concentrations of ionophore/uncoupler", "description": "(§1) The capped RNA (cRNA) expression vector pTRET1-XbG-ev1 series was constructed as follows: ORF of either Tret1, DmTret1, AmTret1, AgTret1 or BmTret1 cDNA was amplified with PCR using specific primers containing Bgl II site at the 5′-end on each primer, respectively. The PCR products were digested with the restriction enzymes, and cloned into the site of Bgl II in pXbG-ev1 (Preston, G. M., et al. (1992) Science 256, 385-387). ORF of hGLUT1 cDNA was obtained by digestion of pSPMM1 with BamH I, and then subcloned into the site of Bgl II in pXbG-2. Template DNAs for cRNA synthesis were amplified from the corresponding cRNA expression vectors with a high fidelity DNA polymerase, KOD—Plus—, (TOYOBO). The cRNAs were synthesized with mMESSAGE mMACHINE T7 Kit (Ambion), and then purified with RNeasy MiniElute Cleanup kit (Qiagen).\nStage V or VI oocytes were extirpated from X. laevis females, and digested ovarian lobes with 0.2% (w/v) collagenase, type II (Sigma-Aldrich) in Ca^2+-free modified Barth's saline (MBS; 88.0 mM NaCl, 1.0 mM KCl, 2.4 mM NaHCO3, 15.0 mM Tris-Cl, 0.82 mM MgSO4, […] penicillin and streptomycin, pH7.6) at 15° C. for 3 h. The oocytes were microinjected with 40 nl of either 1 ng/nl of the TRET1::AcGFP1 or AcGFP1 cRNA, or nuclease-free water (Invitrogen) as a negative control. In order to express TRET1, the oocytes were incubated in MBS (containing 0.41 mM CaCl2) for 3-4 days after injection at 15° C. Fluorescence images of the oocytes injected with the cRNA were observed and analyzed with a fluorescence microscope BZ-8000 (KEYENCE).\n(§2) All uptake assays for zero-trans trehalose and/or other sugars were performed using Xenopus oocytes expressing TRET1 at 15° C. in MBS containing appropriate concentrations of sugars. Sugar concentrations were determined using HPLC (Watanabe, M., et al. (2002) J Exp Biol 205, 2799-2802). All assays were carried out in triplicate.\n(§3) Xenopus oocytes expressing either TRET1 or hGLUT1 were incubated in 105 mM of various sugars for 3 h. Tre: trehalose; Mal: maltose; Suc: sucrose; Lac: lactose; MAG: methyl-a-glucopyranoside; and 2-DOG: 2-deoxy-glucose (FIG. 3B).\nIn General, transporters contain two sub-classes: facilitated transporters and secondary active transporters. Activities of secondary active transporters are dependent on the electrochemical membrane potential resulting from the distribution of ions such as H^+. For example, proton-dependent MAL11/AGT1 can act only under acidic extracellular conditions (Stambuk, B. U., et al. (1996) Eur J Biochem 237, 876-881). On the other hand, facilitated transporters function independently of the electrochemical membrane potential. Xenopus oocytes expressing TRET1 were incubated in 105 mM trehalose at pH 4.2 and 7.6 for 3 h.\nXenopus oocytes expressing TRET1 were incubated in 105 mM trehalose with either control buffer (Mock; 0.1% acetone), or buffer containing various concentrations of nigericin (Na^+, K^+-ionophore), valinomycin (K^+-ionophore) or CCCP (H^+-ionophore, uncoupler) for 3 h.\nIn general, facilitated transporters enable their substrates to flow across membranes down concentration gradients. Xenopus oocytes expressing TRET1 were first incubated in 105 mM trehalose for 3 h, and then transferred into trehalose-free buffer and trehalose content was examined over time.\nXenopus oocytes expressing TRET1 were incubated in various concentrations of trehalose for 15 min. Uptake data were fitted to the Michaelis-Menten and Eadie-Hofstee (inset of FIG. 9) equations."}, "hGLUT1": {"target": "T2, hGLUT1 (Homo sapiens, UniProt P11166)", "T2 construct": "ORF of hGLUT1 cDNA was obtained by digestion of pSPMM1 with BamH I; expressed in transfected cells; host or cells: Xenopus laevis oocytes injected with cRNA", "T2 sequence (P11166 1-492)": "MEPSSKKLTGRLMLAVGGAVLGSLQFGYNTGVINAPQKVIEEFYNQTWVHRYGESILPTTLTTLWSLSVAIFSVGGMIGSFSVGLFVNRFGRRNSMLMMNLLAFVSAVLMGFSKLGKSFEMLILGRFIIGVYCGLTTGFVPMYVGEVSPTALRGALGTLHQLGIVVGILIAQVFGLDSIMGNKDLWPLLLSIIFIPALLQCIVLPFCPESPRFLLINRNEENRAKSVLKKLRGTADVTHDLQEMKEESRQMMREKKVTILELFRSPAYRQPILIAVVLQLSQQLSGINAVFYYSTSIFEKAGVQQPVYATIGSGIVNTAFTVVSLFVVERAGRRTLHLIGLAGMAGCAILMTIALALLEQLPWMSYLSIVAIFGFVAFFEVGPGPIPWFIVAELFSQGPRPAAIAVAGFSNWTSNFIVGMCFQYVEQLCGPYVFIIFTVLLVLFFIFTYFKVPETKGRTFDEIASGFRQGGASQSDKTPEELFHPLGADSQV", "assay": "Sugar uptake assay in Xenopus oocytes expressing hGLUT1", "format": "cell-based", "conditions": "105 mM of sugar, 3 h", "description": "as §1, §2, §3"}, "[1]": {"conditions": "105 mM of sugar, 3 h, Xenopus oocytes"}}, "note": "Like-named read-outs stand apart in the source and are kept apart here.", "data": [{"smiles": "O=CC[C@@H](O)[C@H](O)[C@H](O)CO", "note": "[2-DOG, 2-deoxy-glucose]", "values": [{"measurement": "transport of sugar by TRET1 (substrate selectivity)", "setting": "TRET1", "result": "transported at a much lower rate"}, {"measurement": "transport of sugar by Glut1 gene product (substrate selectivity)", "setting": "hGLUT1", "result": "transported"}]}, {"smiles": "N#CC(C#N)=NNc1cccc(Cl)c1", "note": "[CCCP, carbonylcyanide m-chlorophenylhydrazone]", "values": [{"measurement": "effect on the transport activity of TRET1", "setting": "TRET1; 3 h", "result": "did not significantly affect"}]}, {"smiles": "COC1OC(CO)C(O)C(O)C1O", "note": "(stereo not drawn) [MAG, methyl-a-glucopyranoside]", "values": [{"measurement": "transport of sugar by TRET1 (substrate selectivity)", "setting": "TRET1; [1]", "result": "transported at a much lower rate"}]}, {"smiles": "OC[C@H]1O[C@H](O[C@H]2[C@H](O)[C@@H](O)[C@H](O)O[C@@H]2CO)[C@H](O)[C@@H](O)[C@@H]1O", "note": "[Maltose, maltose]", "values": [{"measurement": "transport of sugar by TRET1 (substrate selectivity)", "setting": "TRET1; [1]", "result": "not transported"}]}, {"smiles": "OC[C@H]1O[C@@H](O[C@H]2[C@H](O)[C@@H](O)C(O)O[C@@H]2CO)[C@H](O)[C@@H](O)[C@H]1O", "note": "(stereo partly drawn) [lactose, 4-O-b-D-galactopyranosyl-D-glucose]", "values": [{"measurement": "transport of sugar by TRET1 (substrate selectivity)", "setting": "TRET1; [1]", "result": "not transported"}]}, {"smiles": "CO[C@@H]1C[C@@H](C[C@H]2CC[C@H](C)[C@H]([C@@H](C)C(=O)O)O2)O[C@]2(O[C@](C)([C@H]3CC[C@@](C)([C@@H]4O[C@@H]([C@H]5O[C@@](O)(CO)[C@H](C)C[C@@H]5C)C[C@@H]4C)O3)C[C@H]2C)[C@@H]1C", "note": "[nigericin]", "values": [{"measurement": "effect on the transport activity of TRET1", "setting": "TRET1; 3 h", "result": "did not significantly affect"}]}, {"smiles": "OC[C@H]1O[C@@](CO)(O[C@H]2O[C@H](CO)[C@@H](O)[C@H](O)[C@H]2O)[C@@H](O)[C@@H]1O", "note": "[sucrose]", "values": [{"measurement": "transport of sugar by TRET1 (substrate selectivity)", "setting": "TRET1; [1]", "result": "not transported"}]}, {"smiles": "CC(C)[C@@H]1NC(=O)[C@H](C)OC(=O)[C@@H](C(C)C)NC(=O)[C@@H](C(C)C)OC(=O)[C@H](C(C)C)NC(=O)[C@H](C)OC(=O)[C@@H](C(C)C)NC(=O)[C@@H](C(C)C)OC(=O)[C@H](C(C)C)NC(=O)[C@H](C)OC(=O)[C@@H](C(C)C)NC(=O)[C@@H](C(C)C)OC1=O", "note": "[valinomycin]", "values": [{"measurement": "effect on the transport activity of TRET1", "setting": "TRET1; 3 h", "result": "did not significantly affect"}]}]}
